Test [1] deals with T1, 5-HT1A (Rattus norvegicus, UniProt P19327).
T1 construct: Hippocampal tissue from the brains of male Charles River CD rats; from tissue; host or cells: rat hippocampus (male Charles River CD rats), crude membrane pellet
T1 sequence (P19327 1-422): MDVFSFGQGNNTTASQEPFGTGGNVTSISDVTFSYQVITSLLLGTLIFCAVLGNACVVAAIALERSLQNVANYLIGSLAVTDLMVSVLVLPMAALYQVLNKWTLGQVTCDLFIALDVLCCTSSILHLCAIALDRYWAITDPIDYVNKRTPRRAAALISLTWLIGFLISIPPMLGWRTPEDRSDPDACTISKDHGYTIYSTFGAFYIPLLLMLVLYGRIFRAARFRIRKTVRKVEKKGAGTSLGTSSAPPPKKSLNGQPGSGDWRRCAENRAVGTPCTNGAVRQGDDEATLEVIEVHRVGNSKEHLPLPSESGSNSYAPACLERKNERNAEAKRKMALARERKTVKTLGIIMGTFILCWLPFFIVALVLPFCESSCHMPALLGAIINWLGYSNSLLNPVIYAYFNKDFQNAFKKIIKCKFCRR
The test is described as follows: inhibition of tritiated ligand ([3H]8-OH-DPAT) binding to 5-HT1A receptors, rat hippocampal tissue. On the set-up: species or system male Charles River CD rats. The note with it: at 10^-6 M, read-out: % displacement of specific binding, 5-HT1A. The method, then:
Hippocampal tissue from the brains of male Charles River CD rats weighing between 150-250 g were homogenised in ice-cold 50 mM Tris-HCl buffer (pH 7.7) when measured at 25° C., 1:40 w/v) and centrifuged at 30,000 g at 4° C. for 10 minutes. The pellet was rehomogenised in the same buffer, incubated at 37° C. for 10 minutes and centrifuged at 30,000 g at 4° C. for 10 minutes. The final pellet was resuspended in 50 mM Tris-HCl buffer (pH 7.7) containing 4 mM CaCl2, 0.1% L-ascorbic acid and 10 μM pargyline hydrochloride (equivalent to 6.25 mg wet weight of tissue/ml) and used immediately in the binding assay. Aliquots (400 μl; equivalent to 2.5 mg wet weight of tissue/tube) of this suspension were added to tubes containing the ligand (50 μl; 2 nM) and distilled water (50 μl; total binding) or 5-HT (50 μl; 10 μM; non-specific binding) or test compound (50 μl; at a single concentration of 10^-6 M or at 10 concentrations ranging from 10^-11 -10^-3 M). The ligand was [^3 H]8-hydroxy-2-(dipropylamino)tetralin ([^3 H]8-OH-DPAT) and the mixture was incubated at 25° C. for 30 minutes before the incubation was terminated by rapid filtration.
The filters were washed with ice-cold Tris-HCl buffer and dried. The filters were punched out into vials, scintillation fluid added and radioactivity determined by liquid scintillation counting. The percentage displacement of specific binding of the tritiated ligand was calculated for the single concentration (10^-6 M) of test compound. Displacement curves were then produced for those compounds which displaced ≥50% of specific binding of the tritiated ligand at 10^-6 M using a range of concentrations of the compound. The concentration which gave 50% inhibition of specific binding (IC50) was obtained from the curve. The inhibition coefficient Ki was then calculated using the formula [formula] in which [ligand] is the concentration of the tritiated ligand used and KD Is the equilibrium dissociation constant for the ligand.

The target in test [2] is T2, D2-like dopamine receptors (Rattus norvegicus, UniProt P61169).
T2 construct: Striatal tissue from the brains of male Charles River CD rats; from tissue; host or cells: rat striatum (male Charles River CD rats), crude membrane pellet
The test is described as follows: inhibition of tritiated (S)-sulpiride binding to D2-like dopamine receptors, rat striatal tissue. On the set-up: species or system male Charles River CD rats. The note with it: for Ki: 4° C., 40 minutes, pH 7.7; for inhibition at 1 µM: at 10^-6 M, read-out: % displacement of specific binding, D2-like. The method, then: Striatal tissue from the brains of male Charles River CD rats weighing between 140-250 g were homogenised in ice-cold 50 mM Tris-HCl buffer (pH 7.7 when measured at 25° C.) and centrifuged at 40,000 g for 10 minutes. The pellet was resuspended in Tris salts buffer (50 mM Tris-HCl buffer containing 120 mM NaCl, 5 mM KCl, 2 mM CaCl2 and 1 mM MgCl2 with the addition of 6 mM ascorbic acid; pH 7.7 when measured at 25° C.), and again centrifuged at 40,000 g for 10 minutes. The final pellet was stored at -80° C. Before each test the pellet was resuspended in Tris salts buffer (equivalent to 2 mg wet weight of tissue/ml). Aliquots (720 μl; equivalent to 1.44 mg wet weight of tissue/tube) of this suspension were then added to tubes containing the ligand (40 μl; 1 nM) and Tris salts buffer (40 μl; total binding) or spiroperidol (40 μl; 10 nM; non-specific binding) or test compound (40 μl; at a single concentration of 10^-6 M or at 6 concentrations ranging from 10^-11 -10^-4 M). The ligand was tritiated (S)-sulpiride and the mixture was incubated at 4° C. for 40 minutes before the incubation was terminated by rapid filtration.
The filters were washed with ice-cold Tris-HCl buffer and dried. The filters were punched out in to vials, scintillation fluid added and were left for about 20 hours before being counted by scintillation spectrophotometry. The percentage displacement of specific binding of the tritiated ligand was calculated for the single concentration (10^-6 M) of test compound. Displacement curves were then produced over a range of concentrations for those compounds which displaced ≥50% of specific binding of the tritiated ligand at 10^-6 M. The concentration which gave a 50% inhibition of specific binding (IC50) was obtained from the curve. The inhibition coefficient Ki was then calculated using the formula [formula] in which [ligand] is the concentration of the tritiated ligand used and KD is the equilibrium dissociation constant for the ligand.

One may read the Ki as a measure of affinity in units of concentration, obtained from inhibition or displacement.

T2 sequence (P61169 whole entry): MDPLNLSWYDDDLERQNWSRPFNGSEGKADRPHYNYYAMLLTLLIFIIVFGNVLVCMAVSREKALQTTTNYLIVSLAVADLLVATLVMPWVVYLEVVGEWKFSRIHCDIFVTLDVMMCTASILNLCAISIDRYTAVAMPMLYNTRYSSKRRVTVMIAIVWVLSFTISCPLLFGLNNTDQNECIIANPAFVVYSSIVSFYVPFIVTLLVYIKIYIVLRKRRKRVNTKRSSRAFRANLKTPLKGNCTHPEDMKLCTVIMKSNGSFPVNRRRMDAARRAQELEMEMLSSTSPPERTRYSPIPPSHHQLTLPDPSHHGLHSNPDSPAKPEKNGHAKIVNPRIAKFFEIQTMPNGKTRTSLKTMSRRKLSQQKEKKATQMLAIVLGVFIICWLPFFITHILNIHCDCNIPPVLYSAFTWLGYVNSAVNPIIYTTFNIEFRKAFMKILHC

Regarding `O=S(=O)(NCC1CCN(C[C@H]2COc3ccc(Cl)cc3O2)CC1)c1cc2nnoc2c2ccccc12` [Example 20, (S)-N-{[1-(7-Chloro-1,4-benzodioxan-2-ylmethyl)-4-piperidyl]methyl}naphth [2,1-d][1,2,3]oxadiazole-5-sulphonamide], the inhibition at 1 µM in test [1] stood at 75%. Further, in test [2], affinity was put at a Ki of 235 nM.
Taken in the same sequence, the figures for `Cc1cc(C)c(S(=O)(=O)NCC2CCN(C[C@H]3COc4ccc(Cl)cc4O3)CC2)c(C)c1` [Example 21, (S)-N-{[1-(7-Chloro-1,4-benzodioxan-2-ylmethyl)-4-piperidyl]methyl}-2,4,6-trimethylbenzenesulphonamide] were 71% and 249 nM.
Taken in the same sequence, the figures for `Cc1c(C)c(C)c(S(=O)(=O)NCC2CCN(C[C@H]3COc4ccc(Cl)cc4O3)CC2)c(C)c1C` [Example 22, (S)-N-{[1-(7-Chloro-1,4-benzodioxan-2-ylmethyl)-4-piperidyl]methyl}-2,3,4,5,6-pentamethylbenzenesulphonamide] were 59% and 317 nM.
On to `CCN(CC)c1cccc2c(S(=O)(=O)NCC3CCN(C[C@H]4COc5ccc(Cl)cc5O4)CC3)cccc12` [Example 23, (S)-N-{[1-(7-Chloro-1,4-benzodioxan-2-ylmethyl)-4-piperidyl]methyl}-5-(diethylamino)naphthalene-1-sulphonamide], for which the inhibition at 1 µM in test [1] came out at 82%; in test [2] it was 83%.
Turning to `O=S(=O)(NCC1CCN(C[C@H]2COc3ccc(Cl)cc3O2)CC1)c1ccc(C(F)(F)F)cc1` [Example 24, (S)-N-{[1-(7-Chloro-1,4-benzodioxan-2-ylmethyl)-4-piperidyl]methyl}-4-trifluoromethylbenzenesulphonamide], the inhibition at 1 µM in test [1] was found to be 90%. The same compound had a Ki in test [2] of 533 nM.
In the same order, the values of `O=[N+]([O-])c1cccc(S(=O)(=O)NCC2CCN(C[C@H]3COc4ccc(Cl)cc4O3)CC2)c1` [Example 25, (S)-N-{[1-(7-Chloro-1,4-benzodioxan-2-ylmethyl)-4-piperidyl]methyl}-3-nitrobenzenesulphonamide] are 91% and 119 nM.
Take `Cc1c([N+](=O)[O-])cc(S(=O)(=O)NCC2CCN(C[C@H]3COc4ccc(Cl)cc4O3)CC2)cc1[N+](=O)[O-]` [Example 26, (S)-N-{[1-(7-Chloro-1,4-benzodioxan-2-ylmethyl)-4-piperidyl]methyl}-4-methyl-3,5-dinitrobenzenesulphonamide]: the inhibition at 1 µM worked out at 88% in test [1] and 87% in test [2].
For the compound `COc1ccc(Cl)cc1S(=O)(=O)NCC1CCN(C[C@H]2COc3ccc(Cl)cc3O2)CC1` [Example 27, (S)-5-Chloro-N-{[1-(7-chloro-1,4-benzodioxan-2-ylmethyl)-4-piperidyl]methyl}-2-methoxybenzenesulphonamide], the inhibition at 1 µM in test [1] was determined as 68%. The Ki in test [2] worked out at 351 nM.
In the case of `O=S(=O)(NCC1CCN(C[C@H]2COc3ccc(Cl)cc3O2)CC1)c1cccc(C(F)(F)F)c1` [Example 28, (S)-N-{[1-(7-Chloro-1,4-benzodioxan-2-ylmethyl)-4-piperidyl]methyl}-3-trifluoromethylbenzenesulphonamide], the inhibition at 1 µM in test [1] came out at 68%. This compound gave a Ki in test [2] of 352 nM.
In the same order, the values of `O=S(=O)(NCC1CCN(C[C@H]2COc3ccc(Cl)cc3O2)CC1)c1ccc(OC(F)(F)F)cc1` [Example 29, (S)-N-{[1-(7-Chloro-1,4-benzodioxan-2-ylmethyl)-4-piperidyl]methyl}-4-trifluoromethoxybenzenesulphonamide] are 67% and 357 nM.
In the same order, the values of `O=S(=O)(NCC1CCN(C[C@H]2COc3ccc(Cl)cc3O2)CC1)c1ccc2ccccc2c1` [Example 30, (S)-N-{[1-(7-Chloro-1,4-benzodioxan-2-ylmethyl)-4-piperidyl]methyl}-2-naphthalenesulphonamide] are 65% and 241 nM.
In the same order, the values of `O=S(=O)(NCC1CCN(C[C@H]2COc3ccc(Cl)cc3O2)CC1)c1cccc2ccccc12` [Example 31, (S)-N-{[1-(7-Chloro-1,4-benzodioxan-2-ylmethyl)-4-piperidyl]methyl}-1-naphthalenesulphonamide] are 60% and 215 nM.
`COc1ccc(OC)c(S(=O)(=O)NCC2CCN(C[C@H]3COc4ccc(Cl)cc4O3)CC2)c1` [Example 32, (S)-N-{[1-(7-Chloro-1,4-benzodioxan-2-ylmethyl)-4-piperidyl]methyl}-2,5-dimethoxybenzenesulphonamide]: the inhibition at 1 µM in test [1] came out at 87%. This compound also returned a Ki in test [2] of 285 nM.
In the same order, the values of `Cc1ccc(S(=O)(=O)NCC2CCN(C[C@H]3COc4ccc(Cl)cc4O3)CC2)cc1` [Example 33, (S)-N-{[1-(7-Chloro-1,4-benzodioxan-2-ylmethyl)-4-piperidyl]methyl}-4-methylbenzenesulphonamide] are 91% and 301 nM.
Taken in the same sequence, the figures for `O=S(=O)(NCC1CCN(C[C@H]2COc3ccc(Cl)cc3O2)CC1)c1ccccc1` [Example 34, (S)-N-{[1-(7-Chloro-1,4-benzodioxan-2-ylmethyl)-4-piperidyl]methyl}benzene-sulphonamide] were 87% and 88 nM.
Taken in the same sequence, the figures for `Cc1ccc(F)cc1S(=O)(=O)NCC1CCN(C[C@H]2COc3ccc(Cl)cc3O2)CC1` [Example 35, (S)-N-{[1-(7-Chloro-1,4-benzodioxan-2-ylmethyl)-4-piperidyl]methyl}-5-fluoro-2-methylbenzenesulphonamide] were 81% and 328 nM.
Turning to `O=S(=O)(NCC1CCN(C[C@H]2COc3ccc(Cl)cc3O2)CC1)c1cc(Br)ccc1Br` [Example 36, (S)-2,5-Dibromo-N-{[1-(7-Chloro-1,4-benzodioxan-2-ylmethyl)-4-piperidyl]methyl}-benzenesulphonamide], the inhibition at 1 µM in test [1] came to 68%. Moreover, the Ki in test [2] is 487 nM.
Taken in the same sequence, the figures for `O=[N+]([O-])c1ccccc1S(=O)(=O)NCC1CCN(C[C@H]2COc3ccc(Cl)cc3O2)CC1` [Example 37, (S)-N-{[1-(7-Chloro-1,4-benzodioxan-2-ylmethyl)-4-piperidyl]methyl}-2-nitro-benzenesulphonamide] were 87% and 85 nM.
